Experimental data: US12173309B2, “Compounds for increasing genome editing efficiency” (Max-Planck-Gesellschaft zur Förderung der Wissenschaften …, priority 2017, dated 2024)

System: 409-B2 iCRISPR-Cas9D10A iPSCs
Assay: Precise genome editing (PGE) efficiency with iCRISPR Cas9D10A double nicking and ssODN donors, Illumina sequencing/CRISPResso
Assay type: cell-based, human
Conditions: Cas9D10A; for PGE increase (mean change vs control): 20 μM NU7026, 0.01 μM TSA, 0.5 μM MLN4924, 5 μM NSC 15520, CRISPY mix = all four
Description: FIG. 1: Genome editing and analysis flowchart. iCRISPR 409-B2 iPSCs are treated with 2 μg/ml doxycycline at least for 2 days to induce Cas9 or Cas9D10A expression. Reverse transfection with RNAiMAX, gRNA (7.5 nM each), ssODN (10 nM) and the small molecules to be evaluated is carried out in a 96 well plate for 1 day. The amount of cells used gives ˜80% confluency. Cells are then expanded for 3 days with regular media change. After harvest follows DNA extraction, PCR amplification of targeted loci, Illumina sequencing and CRISPResso (Pinello et al. 2016) sequence analysis for amount of indels and precise genome editing.
Cells were incubated with media containing 2 μg/ml doxycycline (Clontech, 631311) 2 days prior to lipofection. Lipofection (reverse transfection) was done using the alt-CRISPR manufacturer's protocol (IDT) with a final concentration of 7.5 nM of each gRNA and 10 nM of the respective ssODN. In brief, 0.75 μl RNAiMAX (Invitrogen, 13778075) and the respective oligonucleotides were separately diluted in 25 μl OPTI-MEM (Gibco, 1985-062) each and incubated at room temperature for 5 min. Both dilutions were mixed to yield 50 μl of OPTI-MEM including RNAiMAX, gRNAs and ssODNs. The lipofection mix was incubated for 20-30 min at room temperature. During incubation cells were dissociated using EDTA for 5 min and counted using the Countess Automated Cell Counter (Invitrogen). The lipofection mix, 100 μl containing 25.000 dissociated cells in mTeSR1 supplemented with Y-27632, 2 μg/ml doxycycline and the respective small molecule(s) to be tested were throughoutly mixed and put in one well of a 96 well covered with Matrigel Matrix (Corning, 35248). Media was exchanged to regular mTeSR1 media after 24 hours.
Three days after lipofection cells were dissociated using Accutase (SIGMA, A6964), pelleted, and resuspended in 15 μl QuickExtract (Epicentre, QE0905T). Incubation at 65° C. for 10 min, 68° C. for 5 min and finally 98° C. for 5 min was performed to yield ssDNA as a PCR template. Primers for each targeted loci of CALD1, KATNA1 and SLITRK1 containing adapters for Illumina sequencing were ordered from IDT (Coralville, USA). PCR was done in a T100 Thermal Cycler (Bio-Rad) using the KAPA2G Robust PCR Kit (Peqlab, 07-KK5532-03) with supplied buffer B and 3 μl of cell extract in a total volume of 25 μl. The thermal cycling profile of the PCR was: 95° C. 3 min; 34×(95° 15 sec, 65° C. 15 sec, 72° C. 15 sec); 72° C. 60 sec. P5 and P7 Illumina adapters with sample specific indices were added in a second PCR reaction (Kircher et al. 2012) using Phusion HF MasterMix (Thermo Scientific, F-531L) and 0.3 μl of the first PCR product. The thermal cycling profile of the PCR was: 98° C. 30 sec; 25× (98° 10 sec, 58° C. 10 sec, 72° C. 20 sec); 72° C. 5 min. Amplifications were verified by size separating agarose gel electrophoresis using EX gels (Invitrogen, G4010-11). The indexed amplicons were purified using Solid Phase Reversible Immobilization (SPRI) beads (Meyer, Kircher 2010). Double-indexed libraries were sequenced on a MiSeq (Illumina) giving paired-end sequences of 2×150 bp. After base calling using Bustard (Illumina) adapters were trimmed using leeHom (Renaud et al. 2014).
CRISPresso (Pinello et al. 2016) was used to analyse sequencing data from CRISPR genome editing experiments for percentage of wildtype, targeted nucleotide substitutions (TNS), indels and mix of TNS and indels. Parameters used for analysis were ‘-w 20’, ‘--min_identity_score 70’ and ‘--ignore_substitutions’ (analysis was restricted to amplicons with a minimum of 70% similarity to the wildtype sequence and to a window of 20 bp from each gRNA; substitutions were ignored, as sequencing errors would be falsely characterized as NHEJ-events). Sequencing data from colonies after single cell seeding (FIGS. 3B and C) was further analyzed by evaluating the actual read sequences using SAMtools. Clonal colonies were differentiated from mixed colonies using sequence read proportions. […]

Compound: O=c1cc(N2CCOCC2)oc2c1ccc1ccccc12 [NU7026]
- PGE increase (mean change vs control) (CALD1): 1.5 fold
- higher PGE frequency than without the molecules (pooled across CALD1, KATNA1, SLITRK1 (FIG. 5A), p<0.001): 2.3 fold
- PGE increase (mean change vs control) (KATNA1): 2.6 fold
- PGE increase (mean change vs control) (SLITRK1): 2.5 fold

Compound: CC(C)C1=CC23CCC4C(C)(C(=O)O)CCCC4(C)C2CC1C(C(=O)O)C3C(=O)O (stereo not drawn) [NSC 15520, Fumaropimaric acid]
- PGE increase (mean change vs control) (CALD1): 1.4 fold
- effect on PGE of further addition to the mix of NU7026, TSA and MLN4924 (all loci, 5 μM NSC 15520, then 1 μM NSC 19630, 20 μM AICAR, 1 μM RS-1 (FIG. 5A)): slightly increased
- PGE increase (mean change vs control) (KATNA1): no effect
- PGE increase (mean change vs control) (SLITRK1): no effect

Compound: NS(=O)(=O)OC[C@@H]1C[C@@H](n2ccc3c(N[C@H]4CCc5ccccc54)ncnc32)C[C@@H]1O [MLN4924, Pevonedistat]
- PGE increase (mean change vs control) (CALD1): 1.2 fold
- additional increase in PGE on addition to the mix of NU7026 and TSA (0.5 μM MLN4924, p<0.01): 1.3 fold
- PGE increase (mean change vs control) (KATNA1): 1.1 fold
- PGE increase (mean change vs control) (SLITRK1): 1.3 fold
